Experimental data as given in publication PMC6821791, “Phase I Trial of Pyragrel, a Novel Thromboxane Synthetase Inhibitor, to Evaluate the Safety, Tolerability, and Pharmacokinetics in Healthy Volunteers” (Frontiers in Pharmacology, 2019).

Experiments:
[1] = Safety assessment, adverse event monitoring (Parts I-V); format: in vivo, human
Procedure: Safety was assessed using subject interviews and adverse event (AE) monitoring. All subjects received laboratory examinations after termination of drug infusion for 48 or 72 h; the examination items are the same as those listed in the screening process. If clinical abnormalities were present, further follow-ups were required until the laboratory test values or vital sign levels of the abnormal items returned to normal values or stable levels. The clinical significance of abnormal laboratory test values was determined by the physicians.
The vital signs were analyzed by repeated measures analysis of variance (ANOVA), and laboratory indexes were analyzed by the paired t-test and one-way ANOVA. Comparison within different dose regimens of pyragrel or among different treatments (pyragrel, ozagrel, and placebo) or production of urinary 11-D-HTXB2 among groups was performed with the t-test, and expected values were considered along with the actual situation. Descriptive methods were used to compare the incidence of AE between pyragrel and ozagrel/placebo or in different pyragrel dose regimens; the normal/abnormal changes in laboratory examinations before and after administration were described.

[2] = dog, in vivo; cited from earlier work
[3] = parameters: method as in Morio et al., 1993; conditions: patients with ozagrel treatment; ref Morio et al., 1993; cited from earlier work
[4] = Part I, controls of the 30 mg dose group (ozagrel 80 mg)
[5] = Part I, controls of the 120 mg dose group (ozagrel 80 mg)
[6] = Part I, controls of the 180 mg dose group (ozagrel 80 mg)

O=C(O)/C=C/c1ccc(Cn2ccnc2)cc1 [Ozagrel, Sodium ozagrel, reference compound]
Number of AEs in Part I ([1]; Part I, 36 pyragrel-treated subjects, 8 subjects of ozagrel treatment): 3 | AE Type, Ozagrel/placebo [1, 4]: DB elevation | Number of AEs, Ozagrel/placebo [1, 4]: 1 | Number of AEs, Ozagrel/placebo ([1]; Part I, controls of the 60 mg dose group (ozagrel 80 mg)): 0 | AE Type, Ozagrel/placebo [1, 5]: DB elevation | Number of AEs, Ozagrel/placebo [1, 5]: 1 | AE Type, Ozagrel/placebo [1, 6]: abdominal pain | Number of AEs, Ozagrel/placebo [1, 6]: 1 | Number of AEs, Ozagrel/placebo ([1]; Part I, listed as of the 240 mg dose group): 0 | Number of AEs, Ozagrel/placebo ([1]; Part I, listed as of the 300 mg dose group): 0 | Number of AEs, Ozagrel/placebo ([1]; Total): 3 | Incidence of elevation in conjugated bilirubin (DB elevation) ([1]; all parts, 12/68 subjects of pyragrel, 2/8 subjects of ozagrel): 25% | Maximum safe dose [2]: 12.5 mg/kg/day | Incidence rate of severe bleeding [3]: up to 5%
